{"source": "patent US8987502B2", "about": "“Oleanolic acid amidate derivatives, preparation methods and uses thereof” (Hangzhou Bensheng Pharmaceutical Co., Ltd., priority 2011, dated 2015)", "key": {"[1]": {"tested_on": "Kasumi-1", "experiment": "MTT leukemia cell proliferation inhibition, Kasumi-1", "format": "cell-based", "conditions": "Homo sapiens", "text": "(§1) Leukemia cell lines: leukemia cell lines: K562/adr (drug-resistant, chronic myeloid leukemia, CML), NB4 (acute promyelocytic leukemia, AML), Kasumi-1 (acute myeloid leukemia M2 type, AML-M2), Jurkat (acute lymphoblastic leukemia, ALL), all of which are donated by Cancer Research Institute of Zhejiang University, China; and H9 (acute lymphoblastic leukemia, ALL), which is purchased from China Center for Type Culture Collection (CCTCC).\n(§2) Reagents: The standard sample of oleanolic acid (OA) is purchased from Hua Kang Pharmaceutical Raw Material Factory, Shifang City, Sichuan, China; and the amidated oleanolic acid derivatives are prepared according to the present invention.\n(§3) Obtaining 6000 well-growing leukemia cells and inoculating them into wells of a 96-well cell culture plate. The culture medium is the 1640 cell culture medium containing 10% fetal bovine serum. After adding the amidated oleanolic acid derivatives of different concentrations and mixing uniformly, placing the plate in a carbon dioxide cell incubator (5% CO2) at 37° C. and incubated for 72 hours. Then the relative number of viable cells is determined by the MTT method. In this experiment, the cell proliferation inhibition rate in control group (not treated with any compound) is set as 0%."}, "[2]": {"tested_on": "Jurkat", "experiment": "MTT leukemia cell proliferation inhibition, Jurkat", "format": "cell-based", "conditions": "Homo sapiens, 72 h", "text": "as §1, §2, §3"}, "[3]": {"tested_on": "Hep G2", "experiment": "MTT solid tumor cell proliferation inhibition, Hep G2", "format": "cell-based", "conditions": "Homo sapiens, HepG2", "method": "(§4) Human solid tumor cell lines: Hep-2 (laryngeal carcinoma), A549 (human lung cancer), CaES-17 (esophageal cancer cell), PC-3 (prostate cancer), CNE (nasopharyngeal carcinoma cell), and SK-OV-3 (ovarian cancer cell), all of which are purchased from China Center For Type Culture Collection; RKO (human colon adenocarcinoma cell), MGC 803 (human gastric cancer cell), MG63 (osteosarcoma) and U87 MG (malignant glioma cell), all of which are purchased from Fuxiang Bio-tech Co. Ltd., Shanghai, China; PANC-1 (pancreatic cancer), Hep G2 (human liver cancer cell), Becap37 (human breast cancer cell), and Hela (human cervical cancer cell), all of which are donated by Cancer Research Institute of Zhejiang University, China.\n(§5) Obtaining 4000 well-growing human solid tumor cells and inoculating them into wells of a 96-well cell culture plate. The culture medium is DMEM High Glucose cell culture medium containing 10% fetal bovine serum. The plate is placed in a carbon dioxide cell incubator (5% CO2) at 37° C. for 24 hours for incubation. After being added with the amidated oleanolic acid derivatives of different concentrations and mixed uniformly, the plate is placed in a carbon dioxide cell incubator (5% CO2) at 37° C. for 72 hours for incubation. Then the relative number of the living cells is determined by the MTT method. In this experiment, the cell proliferation inhibition rate in control group (not treated with any compound) is set as 0%."}, "[4]": {"tested_on": "U87 MG", "experiment": "MTT solid tumor cell proliferation inhibition, U87 MG", "format": "cell-based, human", "conditions": "Homo sapiens, U-87 MG, U87 MG, 72 h", "method": "as §4, §5"}, "[5]": {"tested_on": "K562/adr", "experiment": "MTT leukemia cell proliferation inhibition, K562/adr", "format": "cell-based", "conditions": "Homo sapiens, 72 h", "text": "as §1, §2, §3"}, "[6]": {"tested_on": "MG 63", "experiment": "MTT solid tumor cell proliferation inhibition, MG 63", "format": "cell-based, human", "method": "as §4, §5"}, "[7]": {"tested_on": "CNE", "experiment": "MTT solid tumor cell proliferation inhibition, CNE", "format": "cell-based, human", "conditions": "Homo sapiens, CNE, 72 h", "method": "as §4, §5"}, "[8]": {"tested_on": "Hela", "experiment": "MTT solid tumor cell proliferation inhibition, Hela", "format": "cell-based, human", "conditions": "Homo sapiens, Hela, 72 h", "method": "as §4, §5"}, "[9]": {"tested_on": "RPMI8226", "experiment": "MTT multiple myeloma cell proliferation inhibition, RPMI8226", "format": "cell-based", "conditions": "Homo sapiens, RPMI-8226", "method": "Multiple myeloma cell lines: RPMI8226 (multiple myeloma), purchased from Fuxiang Bio-tech Co. Ltd., Shanghai, China.\nas §3"}, "[10]": {"tested_on": "H9", "experiment": "MTT leukemia cell proliferation inhibition, H9", "format": "cell-based, human", "conditions": "Homo sapiens", "text": "as §1, §2, §3"}, "[11]": {"tested_on": "PC-3", "experiment": "MTT solid tumor cell proliferation inhibition, PC-3", "format": "cell-based, human", "conditions": "Homo sapiens", "method": "as §4, §5"}, "[12]": {"tested_on": "A549", "experiment": "MTT solid tumor cell proliferation inhibition, A549", "format": "cell-based, human", "conditions": "Homo sapiens", "method": "as §4, §5"}, "[13]": {"tested_on": "CaES-17", "experiment": "MTT solid tumor cell proliferation inhibition, CaES-17", "format": "cell-based, human", "conditions": "Homo sapiens, CaEs17", "method": "as §4, §5"}, "[14]": {"tested_on": "Becap37", "experiment": "MTT solid tumor cell proliferation inhibition, Becap37", "format": "cell-based", "conditions": "Homo sapiens", "method": "as §4, §5"}, "[15]": {"tested_on": "PANC-1", "experiment": "MTT solid tumor cell proliferation inhibition, PANC-1", "format": "cell-based, human", "conditions": "Homo sapiens", "method": "as §4, §5"}, "[16]": {"tested_on": "MGC803", "experiment": "MTT solid tumor cell proliferation inhibition, MGC803", "format": "cell-based, human", "conditions": "Homo sapiens, MGC-803", "method": "as §4, §5"}, "[17]": {"tested_on": "NB4", "experiment": "MTT leukemia cell proliferation inhibition, NB4", "format": "cell-based", "conditions": "Homo sapiens, NB-4", "text": "as §1, §2, §3"}, "[18]": {"tested_on": "RKO", "experiment": "MTT solid tumor cell proliferation inhibition, RKO", "format": "cell-based", "conditions": "Homo sapiens, 72 h", "method": "as §4, §5"}, "[19]": {"tested_on": "Hep-2", "experiment": "MTT solid tumor cell proliferation inhibition, Hep-2", "format": "cell-based, human", "conditions": "Homo sapiens", "method": "as §4, §5"}, "[20]": {"tested_on": "SK-OV-3", "experiment": "MTT solid tumor cell proliferation inhibition, SK-OV-3", "format": "cell-based, human", "conditions": "Homo sapiens", "method": "as §4, §5"}, "[21]": {"conditions": "16 μg/mL compound, read-out: IR (inhibition rate)"}}, "data": [{"smiles": "CC1(C)CC[C@]2(C(=O)O)CC[C@]3(C)C(=CC[C@@H]4[C@@]5(C)CC[C@H](O)C(C)(C)[C@@H]5CC[C@]43C)[C@@H]2C1", "note": "[OA, Oleanolic acid]", "values": [{"measurement": "inhibition at 16 µg/mL", "setting": "[1]; Kasumi-1, 16 μg/mL compound, 72 h, read-out: IR (inhibition rate)", "result": 17.2, "unit": "%"}, {"measurement": "IC50", "setting": "[1]; Kasumi-1, 72 h, MTT", "result": "> 16", "unit": "µg/mL"}, {"measurement": "inhibition at 16 µg/mL", "setting": "[2]; [21]", "result": 9.4, "unit": "%"}, {"measurement": "IC50", "setting": "[2]; MTT", "result": "> 16", "unit": "µg/mL"}, {"measurement": "inhibition at 16 µg/mL", "setting": "[3]; Hep G2, 16 μg/mL compound, 72 h, read-out: IR (inhibition rate)", "result": -18.5, "unit": "%"}, {"measurement": "IC50", "setting": "[3]; Hep G2, 72 h, MTT", "result": "> 16", "unit": "µg/mL"}, {"measurement": "inhibition at 16 µg/mL", "setting": "[4]; [21]", "result": 21.8, "unit": "%"}, {"measurement": "IC50", "setting": "[4]; MTT", "result": "> 16", "unit": "µg/mL"}, {"measurement": "inhibition at 16 µg/mL", "setting": "[5]; [21]", "result": 26.5, "unit": "%"}, {"measurement": "IC50", "setting": "[5]; MTT", "result": "> 16", "unit": "µg/mL"}, {"measurement": "IC50", "setting": "[6]; Homo sapiens, MG 63, 72 h, MTT", "result": "> 16", "unit": "µg/mL"}, {"measurement": "IR (inhibition rate)", "setting": "[6]; MG 63, 16 μg/mL compound, 72 h", "result": 29.2, "unit": "%"}, {"measurement": "inhibition at 16 µg/mL", "setting": "[7]; [21]", "result": 33.9, "unit": "%"}, {"measurement": "IC50", "setting": "[7]; MTT", "result": "> 16", "unit": "µg/mL"}, {"measurement": "inhibition at 16 µg/mL", "setting": "[8]; [21]", "result": 22.9, "unit": "%"}, {"measurement": "IC50", "setting": "[8]; MTT", "result": "> 16", "unit": "µg/mL"}, {"measurement": "inhibition at 16 µg/mL", "setting": "[9]; RPMI8226, 16 μg/mL compound, 72 h, read-out: IR (inhibition rate)", "result": 2.2, "unit": "%"}, {"measurement": "IC50", "setting": "[9]; RPMI8226, 72 h, MTT", "result": "> 16", "unit": "µg/mL"}, {"measurement": "inhibition at 16 µg/mL", "setting": "[10]; H9, 16 μg/mL compound, 72 h, read-out: IR (inhibition rate)", "result": 22.8, "unit": "%"}, {"measurement": "IC50", "setting": "[10]; H9, 72 h, MTT", "result": "> 16", "unit": "µg/mL"}, {"measurement": "inhibition at 16 µg/mL", "setting": "[11]; PC-3, 16 μg/mL compound, 72 h, read-out: IR (inhibition rate)", "result": 29.1, "unit": "%"}, {"measurement": "IC50", "setting": "[11]; PC-3, 72 h, MTT", "result": "> 16", "unit": "µg/mL"}, {"measurement": "inhibition at 16 µg/mL", "setting": "[12]; A549, 16 μg/mL compound, 72 h, read-out: IR (inhibition rate)", "result": 5, "unit": "%"}, {"measurement": "IC50", "setting": "[12]; A549, 72 h, MTT", "result": "> 16", "unit": "µg/mL"}, {"measurement": "inhibition at 16 µg/mL", "setting": "[13]; CaES-17, 16 μg/mL compound, 72 h, read-out: IR (inhibition rate)", "result": 27.4, "unit": "%"}, {"measurement": "IC50", "setting": "[13]; CaES-17, 72 h, MTT", "result": "> 16", "unit": "µg/mL"}, {"measurement": "inhibition at 16 µg/mL", "setting": "[14]; Becap37, 16 μg/mL compound, 72 h, read-out: IR (inhibition rate)", "result": 23.4, "unit": "%"}, {"measurement": "IC50", "setting": "[14]; Becap37, 72 h, MTT", "result": "> 16", "unit": "µg/mL"}, {"measurement": "inhibition at 16 µg/mL", "setting": "[15]; PANC-1, 16 μg/mL compound, 72 h, read-out: IR (inhibition rate)", "result": 8.5, "unit": "%"}, {"measurement": "IC50", "setting": "[15]; PANC-1, 72 h, MTT", "result": "> 16", "unit": "µg/mL"}, {"measurement": "inhibition at 16 µg/mL", "setting": "[16]; MGC803, 16 μg/mL compound, 72 h, read-out: IR (inhibition rate)", "result": 19.7, "unit": "%"}, {"measurement": "IC50", "setting": "[16]; MGC803, 72 h, MTT", "result": "> 16", "unit": "µg/mL"}, {"measurement": "inhibition at 16 µg/mL", "setting": "[17]; NB4, 16 μg/mL compound, 72 h, read-out: IR (inhibition rate)", "result": 17.2, "unit": "%"}, {"measurement": "IC50", "setting": "[17]; NB4, 72 h, MTT", "result": "> 16", "unit": "µg/mL"}, {"measurement": "inhibition at 16 µg/mL", "setting": "[18]; [21]", "result": 14.3, "unit": "%"}, {"measurement": "IC50", "setting": "[18]; MTT", "result": "> 16", "unit": "µg/mL"}, {"measurement": "inhibition at 16 µg/mL", "setting": "[19]; Hep-2, 16 μg/mL compound, 72 h, read-out: IR (inhibition rate)", "result": 9.8, "unit": "%"}, {"measurement": "IC50", "setting": "[19]; Hep-2, 72 h, MTT", "result": "> 16", "unit": "µg/mL"}, {"measurement": "inhibition at 16 µg/mL", "setting": "[20]; SK-OV-3, 16 μg/mL compound, 72 h, read-out: IR (inhibition rate)", "result": 8.3, "unit": "%"}, {"measurement": "IC50", "setting": "[20]; SK-OV-3, 72 h, MTT", "result": "> 16", "unit": "µg/mL"}]}]}
